ChEMBL document CHEMBL4033679, “Medicinal chemistry of antischistosomal drugs: Praziquantel and oxamniquine” (Bioorg Med Chem, 2017)

Columns and labels:
Schistosoma japonicum [1] = experiment: Antiparasitic activity against Schistosoma japonicum cercariae isolate Anhui infected in ICR mouse assessed as overall reduction rate at 100 to 400 mg/kg, po administered as single dose for 5 consecutive days measured on day 21 post dose by scanning electron microscopic method; assay type: functional; parameters: scale not given: the % may be the effect or the level left
[2] = Cytotoxicity against human HeLa cells assessed as cell survival at 40 uM after 24 hrs by MTT assay relative to control; assay type: cell-based; conditions: read-out: Survival
Schistosoma japonicum [3] = experiment: Antiparasitic activity against Schistosoma japonicum derived from infected C57BL/6 mouse assessed as parasite killing at 10 uM incubated for 30 to 60 mins measured up to 72 hrs by inverted microscopic method relative to control; assay type: functional
Schistosoma mansoni [4] = experiment: Antiparasitic activity against Schistosoma mansoni in patient assessed as cure rate by measuring reduction in eggs in stool at 10 mg/kg/day bid measured up to day 180 post dose relative to control; assay type: functional; parameters: scale not given: the % may be the effect or the level left
[5] = Cmax in human at 15 mg/kg, po; assay type: ADME, organism-based; parameters: dose 15 mg/kg, route oral; conditions: in vivo
Schistosoma mansoni [6] = experiment: Antiparasitic activity against Schistosoma mansoni in patient assessed as reduction in eggs per gram of rectal mucosa at 10 mg/kg/day bid measured up to day 180 post dose relative to control; assay type: functional; parameters: scale not given: the % may be the effect or the level left
[7] = Elimination half life in human at 15 mg/kg, po; assay type: ADME, organism-based; conditions: in vivo, read-out: beta t1/2
[8] = Drug excretion in human urine at 15 mg/kg, po; assay type: ADME, organism-based; conditions: read-out: Drug excretion
[9] = Half life in human; assay type: ADME
[10] = Fraction absorbed in po dosed monkey; assay type: ADME, organism-based, Macaca mulatta; conditions: rhesus monkey, in vivo, read-out: Fabs
albumin = albumin (Homo sapiens, UniProt P02768); experiment: Binding affinity to albumin (unknown origin); assay type: ADME; conditions: read-out: PB
Chain of albumin (P02768 whole entry): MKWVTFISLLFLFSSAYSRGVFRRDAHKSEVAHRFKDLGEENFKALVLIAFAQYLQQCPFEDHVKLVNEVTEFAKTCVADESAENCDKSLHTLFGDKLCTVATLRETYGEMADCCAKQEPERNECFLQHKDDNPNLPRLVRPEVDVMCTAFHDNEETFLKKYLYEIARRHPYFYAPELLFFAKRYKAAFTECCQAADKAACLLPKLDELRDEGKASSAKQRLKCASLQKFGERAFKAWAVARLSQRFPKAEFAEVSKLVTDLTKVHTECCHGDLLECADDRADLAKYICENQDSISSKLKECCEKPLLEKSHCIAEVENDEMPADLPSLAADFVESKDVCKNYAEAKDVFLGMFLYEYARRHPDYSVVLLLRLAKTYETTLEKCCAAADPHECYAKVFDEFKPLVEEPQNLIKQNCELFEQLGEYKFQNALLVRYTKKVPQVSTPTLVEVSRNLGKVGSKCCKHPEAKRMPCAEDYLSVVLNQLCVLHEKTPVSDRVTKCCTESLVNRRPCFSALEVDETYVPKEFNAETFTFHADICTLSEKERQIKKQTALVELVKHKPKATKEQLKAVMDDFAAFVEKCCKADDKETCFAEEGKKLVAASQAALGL

Schistosoma mansoni [11] = experiment: Antiparasitic activity against Schistosoma mansoni in patient assessed as reduction in eggs per gram of rectal mucosa at 60 mg/kg/day for 3 consecutive days measured up to day 180 post dose relative to control; assay type: functional; parameters: scale not given: the % may be the effect or the level left
[12] = Protein binding in plasma (unknown origin) relative to control; assay type: ADME, cell-free; conditions: read-out: PPB
[13] = Drug excretion in human urine up to 4 days; assay type: ADME; conditions: read-out: Drug excretion
[14] = Antiparasitic activity against Schistosoma in intestinal schistosomiasis patient assessed as cure rate at 40 mg/kg; assay type: functional
[15] = Fraction absorbed in po dosed rat; assay type: ADME, organism-based; conditions: in vivo, read-out: Fabs
[16] = Apparent permeability in human Caco2 cells; assay type: ADME, cell-based; conditions: Caco-2
[17] = Tmax in human; assay type: ADME
[18] = Cmax in human after 1 to 2 hrs; assay type: ADME
Plasma = experiment: Drug level in human plasma after 1 to 2 hrs; assay type: ADME, cell-free
Schistosoma mansoni [19] = experiment: Antiparasitic activity against Schistosoma mansoni in patient assessed as cure rate by measuring reduction in eggs in stool at 60 mg/kg/day for 3 consecutive days measured up to day 180 post dose relative to control; assay type: functional; parameters: scale not given: the % may be the effect or the level left
[20] = Fraction absorbed in po dosed dog; assay type: ADME, organism-based, Canis lupus familiaris; conditions: in vivo, read-out: Fabs
[21] = Protein binding in plasma (unknown origin); assay type: ADME, cell-free
Schistosoma mansoni [22] = experiment: In vivo antiparasitic activity against Schistosoma mansoni assessed as cure rate at 40 to 60 mg/kg relative to control; assay type: functional
[23] = Fraction absorbed in po dosed human; assay type: ADME, organism-based; conditions: in vivo, read-out: Fabs
Schistosoma mansoni [24] = experiment: In vivo antiparasitic activity against Schistosoma mansoni assessed as reduction in egg count in […] at 40 to 60 mg/kg relative to control; assay type: functional; parameters: scale not given: the % may be the effect or the level left

Work on `C[C@H]1[C@@H](OC(=O)CCC(=O)Oc2ccc3c(c2)C2CN(C(=O)C4CCCCC4)CC(=O)N2CC3)O[C@@H]2O[C@@]3(C)CC[C@H]4[C@H](C)CC[C@@H]1[C@@]24OO3` (stereo partly drawn) yielded an Activity (Schistosoma japonicum [1]) of 60%.

With `O=C(C1CCCCC1)N1CC(=O)N2CCc3ccc([N+](=O)[O-])cc3C2C1` (stereo not drawn) the viability at 24 h, 40 µM [2] was over 85%.

In the case of `Nc1ccc2c(c1)C1CN(C(=O)C3CCCCC3)CC(=O)N1CC2` (stereo not drawn), the viability at 24 h, 40 µM [2] was over 85%.

With `O=C(CCCCCN1C(=O)c2cccc3c(C4CCOCC4)ccc(c23)C1=O)Nc1ccc2c(c1)C1CN(C(=O)C3CCCCC3)CC(=O)N1CC2` (stereo not drawn) the viability at 24 h, 40 µM [2] was over 85%.

With `O=C(CCl)N1CC(=O)N2CCc3sccc3C2C1` (stereo not drawn) the Activity (Schistosoma japonicum [3]) was 100%.

In the case of `CC(C)NCC1CCc2cc(CO)c([N+](=O)[O-])cc2N1` (stereo not drawn) [OXAMNIQUINE], the Activity (Schistosoma mansoni [4]) was 90.3%, the Cmax [5] was 1000 to 4000 ng/mL and the Activity (Schistosoma mansoni [6]) was 42.4%. It also gave a half-life [7] of 1.5 to 2 h and a dose excreted [8] of 0.4 to 1.9%.

`O=C(C1CCCCC1)N1CC(=O)N2CCc3ccccc3C2C1` (stereo not drawn) [PRAZIQUANTEL] showed a half-life [9] of 1.5 h, a Fa [10] of 75 to 100% and a fraction unbound (albumin) of 0.19 to 0.22. For the same compound, the Activity (Schistosoma mansoni [11]) was 96.1%, the fraction unbound [12] was 0.195 to 0.21 and the dose excreted at 96 h [13] was 80%. The Activity [14] was 18 - 39%, the Fa [15] was 75 to 100% and the Papp [16] was 44 ×10⁻⁶ cm/s. It also gave a Tmax [17] of 3 to 4 h, a Cmax [18] of 1000 ng/mL and a Drug uptake (Plasma) of 5 to 7 %ID. For the same compound, the Activity (Schistosoma mansoni [19]) was 100%, the Fa [20] was 75 to 100% and the PPB [21] was 0.19 to 3 mg/mL. The Activity (Schistosoma mansoni [22]) was 60 - 90%, the Fa [23] was 75 to 100% and the Activity (Schistosoma mansoni [24]) was 90 - 95%.
